Each block holds one molecule with its values, some of them ahead of it.
Key:
[1] = Oral bioavailability in rat at 10 mg/kg; type: ADME, organism-based; settings: in vivo
[2] = Plasma clearance in rat at 0.5 mg/kg, iv; type: ADME, organism-based; parameters: dose 0.5 mg/kg, route intravenous
rat Mdr1a = assay: Apparent permeability across pig LLC-PK1 cells transfected with rat Mdr1a; type: ADME, cell-based, Sus scrofa
[3] = AUC (0 to 24 hrs) in rat at 3 mg/kg, po pre-dosed with 50 mg/kg, po of Pgp and Bcrp inhibitor elacridar 15 mins before drug challenge; type: ADME, organism-based; parameters: dose 3 mg/kg, time < 24 hr, route oral; settings: plasma
[4] = (§1) Oral bioavailability in rat at 3 mg/kg; type: ADME, organism-based; settings: in vivo
[5] = (§2) Oral bioavailability in rat at 30 mg/kg; type: ADME, organism-based; settings: in vivo
[6] = Oral bioavailability in rat at 3 mg/kg pre-dosed with 50 mg/kg, po of Pgp and Bcrp inhibitor elacridar 15 mins before drug challenge; type: ADME, organism-based; settings: in vivo
[7] = Plasma clearance in rat at 5 mg/kg, iv; type: ADME, organism-based; parameters: dose 5 mg/kg, route intravenous
[8] = as §1; type: ADME, organism-based; settings: in vivo; remark: listed apart in the source
Brain [9] = assay: Ratio of drug uptake in MDR1a-deficient FVB mouse brain to drug uptake in FVB mouse expressing wild type MDR1a brain at 30 mg/kg, po after 24 hrs; type: ADME, organism-based; parameters: dose 30 mg/kg, route oral; settings: in vivo
[10] = Oral bioavailability in MDR1a-deficient FVB mouse at 30 mg/kg; type: ADME, organism-based; settings: in vivo
[11] = Blood clearance in MDR1a-deficient FVB mouse at 30 mg/kg, po and 5 mg/kg, iv; type: ADME, organism-based; settings: whole blood
Mus musculus [12] = assay: Volume of distribution at steady state in MDR1a-deficient FVB mouse at 30 mg/kg, po and 5 mg/kg, iv; type: ADME, organism-based; settings: in vivo
[13] = Oral bioavailability in FVB mouse expressing wild type MDR1a at 30 mg/kg; type: ADME, organism-based; settings: in vivo
Mus musculus [14] = assay: Ratio of blood clearance in MDR1a-deficient FVB mouse to blood clearance in FVB mouse expressing wild type MDR1a at 30 mg/kg, po and 5 mg/kg, iv; type: ADME, organism-based; settings: in vivo
Mus musculus [15] = assay: Volume of distribution at steady state in FVB mouse expressing wild type MDR1a at 30 mg/kg, po and 5 mg/kg, iv; type: ADME, organism-based; settings: in vivo
Mus musculus [16] = assay: Ratio of volume of distribution at steady state in MDR1a-deficient FVB mouse to volume of distribution at steady state in FVB mouse expressing wild type MDR1a at 30 mg/kg, po and 5 mg/kg, iv; type: ADME, organism-based; settings: in vivo
[17] = AUC (0 to 24 hrs) in MDR1a-deficient FVB mouse at 30 mg/kg, po; type: ADME, organism-based; parameters: time < 24 hr, dose 30 mg/kg, route oral; settings: plasma
[18] = Drug uptake in MDR1a-deficient FVB mouse brain at 5 mg/kg, iv after 24 hrs; type: ADME, organism-based; parameters: dose 5 mg/kg, route intravenous; settings: read-out: Drug uptake
[19] = Drug uptake in FVB mouse expressing wild type MDR1a brain at 5 mg/kg, iv after 24 hrs; type: ADME, organism-based; parameters: dose 5 mg/kg, route intravenous; settings: read-out: Drug uptake
[20] = Drug uptake in MDR1a-deficient FVB mouse brain at 30 mg/kg, po after 24 hrs; type: ADME, organism-based; parameters: dose 30 mg/kg, route oral; settings: read-out: Drug uptake
[21] = Drug uptake in FVB mouse expressing wild type MDR1a brain at 30 mg/kg, po after 24 hrs; type: ADME, organism-based; parameters: dose 30 mg/kg, route oral; settings: read-out: Drug uptake
Brain [22] = assay: Ratio of drug uptake in MDR1a-deficient FVB mouse brain to drug uptake in FVB mouse expressing wild type MDR1a brain at 5 mg/kg, iv after 24 hrs; type: ADME, organism-based; parameters: dose 5 mg/kg, route intravenous; settings: in vivo
[23] = Blood clearance in FVB mouse expressing wild type MDR1a at 30 mg/kg, po and 5 mg/kg, iv; type: ADME, organism-based; settings: whole blood
Mus musculus [24] = assay: Ratio of AUC (0 to 24 hrs) in MDR1a-deficient FVB mouse to AUC (0 to 24 hrs) in FVB mouse expressing wild type MDR1a at 30 mg/kg, po; type: ADME, organism-based; parameters: dose 30 mg/kg, route oral; settings: in vivo
Mus musculus [25] = assay: Ratio of oral bioavailability in MDR1a-deficient FVB mouse to oral bioavailability in FVB mouse expressing wild type MDR1a at 30 mg/kg; type: ADME, organism-based; settings: in vivo
[26] = AUC (0 to 24 hrs) in FVB mouse expressing wild type MDR1a at 30 mg/kg, po; type: ADME, organism-based; parameters: time < 24 hr, dose 30 mg/kg, route oral; settings: plasma
[27] = Lipophilicity, Log D of the compound at pH 7 by RP-HPLC analysis; type: physicochemical; settings: buffer
[28] = Apparent Passive permeability across pig LLC-PK1 cells; type: ADME, cell-based, Sus scrofa
[29] = Plasma clearance in dog at 3 mg/kg, po and 1 mg/kg, iv; type: ADME, organism-based, Canis lupus familiaris
[30] = Plasma clearance in rat at 30 mg/kg, po and 5 mg/kg, iv; type: ADME, organism-based
[31] = as §2; type: ADME, organism-based; settings: in vivo; remark: listed apart in the source
[32] = Oral bioavailability in dog at 3 mg/kg; type: ADME, organism-based, Canis lupus familiaris; settings: in vivo
[33] = Drug recovery in permanently bile-duct cannulated rat urine supplimented with artificial bile at 20 mg/kg, po after 48 hrs by HPLC-MS/MS analysis; type: ADME, organism-based; parameters: dose 20 mg/kg, route oral; settings: read-out: Drug uptake
[34] = Drug recovery in permanently bile-duct cannulated rat bile supplimented with artificial bile at 5 mg/kg, iv after 48 hrs by HPLC-MS/MS analysis; type: ADME, organism-based; parameters: dose 5 mg/kg, route intravenous; settings: read-out: Drug uptake
[35] = Drug recovery in permanently bile-duct cannulated rat bile supplimented with artificial bile at 20 mg/kg, po after 48 hrs by HPLC-MS/MS analysis; type: ADME, organism-based; parameters: dose 20 mg/kg, route oral; settings: read-out: Drug uptake
[36] = Drug recovery in permanently bile-duct cannulated rat urine supplimented with artificial bile at 5 mg/kg, iv after 48 hrs by HPLC-MS/MS analysis; type: ADME, organism-based; parameters: dose 5 mg/kg, route intravenous; settings: read-out: Drug uptake
[37] = Drug recovery in permanently bile-duct cannulated rat supplimented with artificial bile at 20 mg/kg, po after 48 hrs by HPLC-MS/MS analysis; type: ADME, organism-based; parameters: dose 20 mg/kg, route oral; settings: in vivo, read-out: Drug uptake
[38] = Drug recovery in permanently bile-duct cannulated rat feces supplimented with artificial bile at 5 mg/kg, iv after 48 hrs by HPLC-MS/MS analysis; type: ADME, organism-based; parameters: dose 5 mg/kg, route intravenous; settings: faeces, read-out: Drug uptake
[39] = Drug recovery in permanently bile-duct cannulated rat supplimented with artificial bile at 5 mg/kg, iv after 48 hrs by HPLC-MS/MS analysis; type: ADME, organism-based; parameters: dose 5 mg/kg, route intravenous; settings: in vivo, read-out: Drug uptake
[40] = Drug recovery in permanently bile-duct cannulated rat feces supplimented with artificial bile at 20 mg/kg, po after 48 hrs by HPLC-MS/MS analysis; type: ADME, organism-based; parameters: dose 20 mg/kg, route oral; settings: faeces, read-out: Drug uptake
LLC-PK1 = assay: Ratio of permeability from basolateral to apical side to apical to basolateral side of pig LLC-PK1 cells transfected with rat Mdr1a; type: ADME, cell-based, Sus scrofa
[41] = Oral bioavailability in rat at 0.3 mg/kg pre-dosed with 50 mg/kg, po of Pgp and Bcrp inhibitor elacridar 15 mins before drug challenge; type: ADME, organism-based; settings: in vivo
[42] = Oral bioavailability in rat at 0.3 mg/kg; type: ADME, organism-based; settings: in vivo
[43] = Cmax in rat plasma at 3 mg/kg, po; type: ADME, organism-based; parameters: dose 3 mg/kg, route oral

bioavailability [1]: 21% | clearance [2]: 57 mL/min/kg | Papp (rat Mdr1a): 3 ×10⁻⁶ cm/s | AUC(0-t) at 24 h [3]: 0.033 µM·h | bioavailability [4]: 2% | bioavailability [5]: 24% | bioavailability [6]: 20% | clearance [7]: 67 mL/min/kg | bioavailability [8]: 2%
SMILES: COCCCc1cc(Cl)c(Cl)c(CN(C(=O)[C@H]2CNCC[C@@H]2c2ccn(C)c(=O)c2)C2CC2)c1

fold change (FC) (Brain [9]): 63 | bioavailability [10]: 29% | bioavailability [1]: 7% | clearance [2]: 125 mL/min/kg | clearance [11]: 72 mL/min/kg | Papp (rat Mdr1a): 2 ×10⁻⁶ cm/s | Vdss (Mus musculus [12]): 4.7 L/kg | bioavailability [13]: 7% | fold change (FC) (Mus musculus [14]): 0.9 | Vdss (Mus musculus [15]): 3.7 L/kg | fold change (FC) (Mus musculus [16]): 1.3 | AUC(0-t) at 24 h [17]: 4 µM·h | concentration at 24 h [18]: 239 nM | concentration at 24 h [19]: 7.3 nM | concentration at 24 h [20]: 504 nM | concentration at 24 h [21]: 8 nM | AUC(0-t) at 24 h [3]: 0.044 µM·h | bioavailability [4]: 3% | bioavailability [5]: 17% | fold change (FC) (Brain [22]): 32 | clearance [23]: 82 mL/min/kg | bioavailability [6]: 31% | fold change (FC) (Mus musculus [24]): 5 | clearance [7]: 75 mL/min/kg | fold change (FC) (Mus musculus [25]): 4 | bioavailability [8]: 6% | AUC(0-t) at 24 h [26]: 0.8 µM·h
SMILES: COCCCc1cc(CN(C(=O)[C@H]2CNCC[C@@H]2c2ccn(C)c(=O)c2)C2CC2)cc(Br)c1C

logD [27]: 3.1 | Papp [28]: 11 ×10⁻⁶ cm/s | bioavailability [8]: 16%
SMILES: COCCc1ccc(Cl)c(CN(C(=O)[C@H]2CNCC[C@]2(O)c2ccc(F)c(F)c2)C2CC2)c1

clearance [29]: 26 mL/min/kg | clearance [30]: 11 mL/min/kg | bioavailability [31]: 27% | bioavailability [32]: 44%
SMILES: COCCCc1cc(CN(C(=O)[C@H]2CNCC[C@@H]2c2ccc(OCCOc3c(Cl)cc(C)cc3Cl)cc2)C2CC2)cc(OCCOC)c1.Cl

clearance [29]: 9.2 mL/min/kg | clearance [2]: 43 mL/min/kg | clearance [30]: 31 mL/min/kg | dose excreted at 48 h [33]: 2% | Papp (rat Mdr1a): < 3 ×10⁻⁶ cm/s | bioavailability [31]: 3% | dose excreted at 48 h [34]: 25% | bioavailability [32]: 1% | logD [27]: 0.9 | bioavailability [5]: 3% | dose excreted at 48 h [35]: 0.1% | dose excreted at 48 h [36]: 10% | dose excreted at 48 h [37]: 75% | dose excreted at 48 h [38]: 10% | dose excreted at 48 h [39]: 45% | clearance [7]: 31 mL/min/kg | Papp [28]: 2 ×10⁻⁶ cm/s | dose excreted at 48 h [40]: 73% | bioavailability [8]: 0.5%
SMILES: COCCCc1cc(CN(C(=O)[C@H]2CNCC[C@@H]2c2ccn(C)c(=O)c2)C2CC2)cc(OCCOC)c1.Cl

Papp (rat Mdr1a): 22 ×10⁻⁶ cm/s | Ratio (LLC-PK1): 19 | logD [27]: 2.6 | bioavailability [41]: 14% | bioavailability [4]: 29% | bioavailability [42]: 17% | bioavailability [6]: 24% | Papp [28]: 22 ×10⁻⁶ cm/s | bioavailability [8]: 29%
SMILES: COCCOc1cc(CCOC)cc(CN(C(=O)[C@H]2CNCC[C@]2(O)c2ccc(F)c(F)c2)C2CC2)c1

logD [27]: 1 | Papp [28]: 1 ×10⁻⁶ cm/s | bioavailability [8]: 1%
SMILES: COCCc1ccc(Cl)c(CN(C(=O)[C@H]2CNCC[C@@H]2c2ccn(C)c(=O)c2)C2CC2)c1

Cmax [43]: 200 nM
SMILES: COc1cc2c(cc1OC)CN(CCc1ccc(NC(=O)c3cccc4c(=O)c5cccc(OC)c5[nH]c34)cc1)CC2 [ELACRIDAR]
